In US10750743B2, “Pyridazinone herbicides” (E.I. DU PONT DE NEMOURS AND COMPANY, priority 2015, dated 2020):

Experiments:
Assay type in all cases: in vivo
[1] = test system: wheat (Triticum aestivum); test: Test A postemergence application, visual injury rating; details: 0 to 100 scale, 0 no effect, 100 complete control
Description: (§1) Seeds of plant species selected from barnyardgrass (Echinochloa crus-galli), kochia (Kochia scoparia), ragweed (common ragweed, Ambrosia elatior), ryegrass, It. (Italian ryegrass, Lolium multiflorum), foxtail, giant (giant foxtail, Setaria faberii), and pigweed (Amaranthus retroflexus), were planted into a blend of loam soil and sand and treated preemergence with a directed soil spray using test chemicals formulated in a non-phytotoxic solvent mixture which included a surfactant.
(§2) At the same time, plants selected from these weed species and also wheat (Triticum aestivum), corn (Zea mays), blackgrass (Alopecurus myosuroides), and galium (catchweed bedstraw, Galium aparine), were planted in pots containing the same blend of loam soil and sand and treated with postemergence applications of test chemicals formulated in the same manner Plants ranged in height from 2 to 10 cm and were in the one- to two-leaf stage for the postemergence treatment. Treated plants and untreated controls were maintained in a greenhouse for approximately 10 d, after which time all treated plants were compared to untreated controls and visually evaluated for injury. Plant response ratings, summarized in Table A, are based on a 0 to 100 scale where 0 is no effect and 100 is complete control. A dash (-) response means no test result.

kochia (Kochia scoparia) [2] = test: as above; details: 0 to 100 scale, 0 no effect, 100 complete control
Description: as §1, §2

[3] = test system: pigweed (Amaranthus retroflexus); test: as above; details: 0 to 100 scale, 0 no effect, 100 complete control
Description: as §1, §2

[4] = test system: blackgrass (Alopecurus myosuroides); test: as above; details: 0 to 100 scale, 0 no effect, 100 complete control
Description: as §1, §2

[5] = test system: foxtail, giant (giant foxtail, Setaria faberii); test: as above; details: 0 to 100 scale, 0 no effect, 100 complete control
Description: as §1, §2

[6] = test system: galium (catchweed bedstraw, Galium aparine); test: as above; details: 0 to 100 scale, 0 no effect, 100 complete control
Description: as §1, §2

[7] = test system: barnyardgrass (Echinochloa crus-galli); test: as above; details: 0 to 100 scale, 0 no effect, 100 complete control
Description: as §1, §2

corn (Zea mays) = test: as above; details: 0 to 100 scale, 0 no effect, 100 complete control
Description: as §1, §2

[8] = test system: ryegrass, It. (Italian ryegrass, Lolium multiflorum); test: as above; details: 0 to 100 scale, 0 no effect, 100 complete control
Description: as §1, §2

[9] = test system: ragweed (common ragweed, Ambrosia elatior); test: as above; details: 0 to 100 scale, 0 no effect, 100 complete control
Description: as §1, §2

kochia (Kochia scoparia) [10] = test: Test A preemergence, directed soil spray, visual injury rating; details: 0 is no effect, 100 is complete control
Description: as §1, §2

[11] = test system: pigweed (Amaranthus retroflexus); test: as above; details: 0 is no effect, 100 is complete control
Description: as §1, §2

[12] = test system: foxtail, giant (giant foxtail, Setaria faberii); test: as above; details: 0 is no effect, 100 is complete control
Description: as §1, §2

[13] = test system: barnyardgrass (Echinochloa crus-galli); test: as above; details: 0 is no effect, 100 is complete control
Description: as §1, §2

[14] = test system: ryegrass, It. (Italian ryegrass, Lolium multiflorum); test: as above; details: 0 is no effect, 100 is complete control
Description: as §1, §2

[15] = test system: ragweed (common ragweed, Ambrosia elatior); test: as above; details: 0 is no effect, 100 is complete control
Description: as §1, §2

SMILES | Wheat plant response rating ([1]; 125 g ai/ha) | Wheat plant response rating ([1]; 500 g ai/ha) | Kochia plant response rating (kochia (Kochia scoparia) [2]; 125 g ai/ha) | Kochia plant response rating (kochia (Kochia scoparia) [2]; 500 g ai/ha) | Pigweed plant response rating ([3]; 125 g ai/ha) | Pigweed plant response rating ([3]; 500 g ai/ha) | Blackgrass plant response rating ([4]; 125 g ai/ha) | Blackgrass plant response rating ([4]; 500 g ai/ha) | Foxtail, Giant plant response rating ([5]; 125 g ai/ha) | Foxtail, Giant plant response rating ([5]; 500 g ai/ha) | Galium plant response rating ([6]; 125 g ai/ha) | Galium plant response rating ([6]; 500 g ai/ha) | Barnyardgrass plant response rating ([7]; 125 g ai/ha) | Barnyardgrass plant response rating ([7]; 500 g ai/ha) | Corn plant response rating (corn (Zea mays); 125 g ai/ha) | Corn plant response rating (corn (Zea mays); 500 g ai/ha) | Ryegrass, It. plant response rating ([8]; 125 g ai/ha) | Ryegrass, It. plant response rating ([8]; 500 g ai/ha) | Ragweed plant response rating ([9]; 125 g ai/ha) | Ragweed plant response rating ([9]; 500 g ai/ha) | other results
Cc1cnc2sc(C)c(-c3c(O)c(C)nn(C)c3=O)c2c1 [Compound 3] | 0 | 20 | 30 | 90 | 80 | 90 | 20 | 40 | 0 | 30 | 30 | 80 | 0 | 30 | 0 | 0 | 20 | 80 | 20 | 50 | Plant response rating (0 to 100 scale), Kochia (kochia (Kochia scoparia) [10]; 125 g ai/ha): 0; Plant response rating (0 to 100 scale), Kochia (kochia (Kochia scoparia) [10]; 500 g ai/ha): 20; Plant response rating (0 to 100 scale), Pigweed ([11]; 125 g ai/ha): 40; Plant response rating (0 to 100 scale), Pigweed ([11]; 500 g ai/ha): 80; Plant response rating (0 to 100 scale), Foxtail, Giant ([12]; 125 g ai/ha): 0; Plant response rating (0 to 100 scale), Foxtail, Giant ([12]; 500 g ai/ha): 10; Plant response rating (0 to 100 scale), Barnyardgrass ([13]; 125 g ai/ha): 0; Plant response rating (0 to 100 scale), Barnyardgrass ([13]; 500 g ai/ha): 10; Plant response rating (0 to 100 scale), Ryegrass, It. ([14]; 125 g ai/ha): 30; Plant response rating (0 to 100 scale), Ryegrass, It. ([14]; 500 g ai/ha): 70; Plant response rating (0 to 100 scale), Ragweed ([15]; 125 g ai/ha): 0; Plant response rating (0 to 100 scale), Ragweed ([15]; 500 g ai/ha): 40
CCOC(=O)Oc1c(C)nn(C)c(=O)c1-c1c(C)sc2ncc(C)cc12 [Compound 2] | 0 | 20 | 30 | 90 | 70 | 90 | 20 | 40 | 0 | 20 | 40 | 80 | 0 | 20 | 0 | 0 | 30 | 90 | 20 | 50 | Plant response rating (0 to 100 scale), Kochia (kochia (Kochia scoparia) [10]; 125 g ai/ha): 0; Plant response rating (0 to 100 scale), Kochia (kochia (Kochia scoparia) [10]; 500 g ai/ha): 60; Plant response rating (0 to 100 scale), Pigweed ([11]; 125 g ai/ha): 0; Plant response rating (0 to 100 scale), Pigweed ([11]; 500 g ai/ha): 80; Plant response rating (0 to 100 scale), Foxtail, Giant ([12]; 125 g ai/ha): 0; Plant response rating (0 to 100 scale), Foxtail, Giant ([12]; 500 g ai/ha): 20; Plant response rating (0 to 100 scale), Barnyardgrass ([13]; 125 g ai/ha): 0; Plant response rating (0 to 100 scale), Barnyardgrass ([13]; 500 g ai/ha): 20; Plant response rating (0 to 100 scale), Ryegrass, It. ([14]; 125 g ai/ha): 30; Plant response rating (0 to 100 scale), Ryegrass, It. ([14]; 500 g ai/ha): 100; Plant response rating (0 to 100 scale), Ragweed ([15]; 125 g ai/ha): 0; Plant response rating (0 to 100 scale), Ragweed ([15]; 500 g ai/ha): 20
Cc1nn(C)c(=O)c(-c2c(C)sc3ncccc23)c1O [Compound 14] | 0 | 0 | 0 | 0 | 0 | 0 | 0 | 0 | 0 | 0 | 0 | 40 | 0 | 0 | 0 | 0 | 0 | 20 | 0 | 0 | Plant response rating (0 to 100 scale), Kochia (kochia (Kochia scoparia) [10]; 125 g ai/ha): 0; Plant response rating (0 to 100 scale), Kochia (kochia (Kochia scoparia) [10]; 500 g ai/ha): 0; Plant response rating (0 to 100 scale), Pigweed ([11]; 125 g ai/ha): 0; Plant response rating (0 to 100 scale), Pigweed ([11]; 500 g ai/ha): 0; Plant response rating (0 to 100 scale), Foxtail, Giant ([12]; 125 g ai/ha): 0; Plant response rating (0 to 100 scale), Foxtail, Giant ([12]; 500 g ai/ha): 0; Plant response rating (0 to 100 scale), Barnyardgrass ([13]; 125 g ai/ha): 0; Plant response rating (0 to 100 scale), Barnyardgrass ([13]; 500 g ai/ha): 0; Plant response rating (0 to 100 scale), Ryegrass, It. ([14]; 125 g ai/ha): 10; Plant response rating (0 to 100 scale), Ryegrass, It. ([14]; 500 g ai/ha): 20; Plant response rating (0 to 100 scale), Ragweed ([15]; 125 g ai/ha): 0; Plant response rating (0 to 100 scale), Ragweed ([15]; 500 g ai/ha): 0
CCOC(=O)Oc1c(C)nn(C)c(=O)c1-c1cccc2sccc12 [Compound 5] | 0 | 20 | 0 | 20 | 0 | 20 | 30 | 60 | 0 | 20 | 30 | 80 | 0 | 20 | 0 | 0 | 70 | 90 | 0 | 20 | Plant response rating (0 to 100 scale), Kochia (kochia (Kochia scoparia) [10]; 125 g ai/ha): 10; Plant response rating (0 to 100 scale), Kochia (kochia (Kochia scoparia) [10]; 500 g ai/ha): 30; Plant response rating (0 to 100 scale), Pigweed ([11]; 125 g ai/ha): 20; Plant response rating (0 to 100 scale), Pigweed ([11]; 500 g ai/ha): 100; Plant response rating (0 to 100 scale), Foxtail, Giant ([12]; 125 g ai/ha): 0; Plant response rating (0 to 100 scale), Foxtail, Giant ([12]; 500 g ai/ha): 40; Plant response rating (0 to 100 scale), Barnyardgrass ([13]; 125 g ai/ha): 0; Plant response rating (0 to 100 scale), Barnyardgrass ([13]; 500 g ai/ha): 40; Plant response rating (0 to 100 scale), Ryegrass, It. ([14]; 125 g ai/ha): 80; Plant response rating (0 to 100 scale), Ryegrass, It. ([14]; 500 g ai/ha): 100; Plant response rating (0 to 100 scale), Ragweed ([15]; 125 g ai/ha): 0; Plant response rating (0 to 100 scale), Ragweed ([15]; 500 g ai/ha): 20
CCC(=O)Oc1c(C)nn(C)c(=O)c1-c1cccc2sccc12 [Compound 4] | 0 | 0 | 0 | 20 | 20 | 30 | 20 | 30 | 0 | 20 | 70 | 90 | 0 | 20 | 0 | 0 | 80 | 100 | 0 | 40 | Plant response rating (0 to 100 scale), Kochia (kochia (Kochia scoparia) [10]; 125 g ai/ha): 0; Plant response rating (0 to 100 scale), Kochia (kochia (Kochia scoparia) [10]; 500 g ai/ha): 60; Plant response rating (0 to 100 scale), Pigweed ([11]; 125 g ai/ha): 40; Plant response rating (0 to 100 scale), Pigweed ([11]; 500 g ai/ha): 70; Plant response rating (0 to 100 scale), Foxtail, Giant ([12]; 125 g ai/ha): 0; Plant response rating (0 to 100 scale), Foxtail, Giant ([12]; 500 g ai/ha): 20; Plant response rating (0 to 100 scale), Barnyardgrass ([13]; 125 g ai/ha): 0; Plant response rating (0 to 100 scale), Barnyardgrass ([13]; 500 g ai/ha): 20; Plant response rating (0 to 100 scale), Ryegrass, It. ([14]; 125 g ai/ha): 40; Plant response rating (0 to 100 scale), Ryegrass, It. ([14]; 500 g ai/ha): 100; Plant response rating (0 to 100 scale), Ragweed ([15]; 125 g ai/ha): 0; Plant response rating (0 to 100 scale), Ragweed ([15]; 500 g ai/ha): 20
Cc1cnc2sc(C)c(-c3c(OC(=O)OC(C)C)c(C)nn(C)c3=O)c2c1 [Compound 6] | 0 | 0 | 30 | 60 | 20 | 80 | 0 | 20 | 20 | 40 | 50 | 70 | 0 | 10 | 0 | 0 | 20 | 60 | 10 | 30 | Plant response rating (0 to 100 scale), Kochia (kochia (Kochia scoparia) [10]; 125 g ai/ha): 0; Plant response rating (0 to 100 scale), Kochia (kochia (Kochia scoparia) [10]; 500 g ai/ha): 50; Plant response rating (0 to 100 scale), Pigweed ([11]; 125 g ai/ha): 0; Plant response rating (0 to 100 scale), Pigweed ([11]; 500 g ai/ha): 70; Plant response rating (0 to 100 scale), Foxtail, Giant ([12]; 125 g ai/ha): 20; Plant response rating (0 to 100 scale), Foxtail, Giant ([12]; 500 g ai/ha): 0; Plant response rating (0 to 100 scale), Barnyardgrass ([13]; 125 g ai/ha): 0; Plant response rating (0 to 100 scale), Barnyardgrass ([13]; 500 g ai/ha): 0; Plant response rating (0 to 100 scale), Ryegrass, It. ([14]; 125 g ai/ha): 0; Plant response rating (0 to 100 scale), Ryegrass, It. ([14]; 500 g ai/ha): 50; Plant response rating (0 to 100 scale), Ragweed ([15]; 125 g ai/ha): 0
